# Experimental data reported in US20240246960A1 (adMare Therapeutics Society, priority 2021, published 2024).
# Assays:
# [1] = tested on: FaDu tumour xenograft; assay: In vivo clonogenic survival (CS-ER), FaDu tumour xenografts ± radiation; conditions: Rag2M mice
# Experimental: FaDu tumour xenograft-bearing Rag2M mice were treated with single administrations of test compounds at indicated doses±radiation as indicated, at time 0.
# Mice were irradiated at 1 h post compound administration (unless otherwise indicated), with 300 KV X-rays and a 10 mA current from a Precision XRAD 300 machine (USA) with a beam-hardening filter (2 mm Al+0.25 mm Cu+0.75 mm Sn) and an adjustable site to specimen distance (SSD) at a dose of 8-10 Gy, delivered at a rate of ˜1.05 Gy/min.
# Mice were terminated at times after irradiation as indicated, and tumour tissues excised. A portion of tumour approximately 300-500 mg was briefly minced using sterile scissors and placed in a pre-weighed gentleMACS C tube (Miltenyi Biotec cat #130-093-237) and weighed with combined tumour+tube mass recorded. A 5 mL aliquot of enzyme cocktail comprising of trypsin/DNase/collagenase/EDTA-Na2 in PBS (1 mg/ml trypsin+0.26 mg/ml DNase+0.21 mg/ml collagenase+2 mM EDTA-Na2) was added to the tube, which is then run on the gentleMACS Dissociator disaggregation system. Tubes were then incubated at 37° C. and continually rotated for 20 min before again running on the gentleMACS Dissociator program. Samples were then diluted with 5 ml MEM medium containing 5% FBS and filtered (Falcon cell strainer 100 μm, cat #352360). After centrifugation (1100 rpm for 6 minutes at 4° C.) supernatant was aspirated and the cells resuspended in 4 ml cold growth medium (MEM+10% FBS)+50 ul DNase (5 mg/ml DNase solution). Cell numbers were counted from the same cell solution using a hemacytometer. Appropriate dilutions (control: 10,000 cells/ml; 8Gy: 400,000 cells/ml; drug+radiation treated; 500,000 cells/ml) were made and cells then plated in triplicate: control: 100 μl and 300 μl (1000 and 3000 cells/6 cm tissue culture plate); 8Gy: 30 μl, 105 μl and 350 μl (12000, 42000 cells/6 cm plates and 140000 cells/10 cm plate); drug+8Gy: 70 μl, 300 μl, 1.2 ml (35000 and 150000 cells/6 cm plates and 600000 cells/10 cm plates—only duplicate). Plates were incubated at 37° C. (in a 5% CO2, 5% O2 and balance N2 environment) for 14 days. For a final and accurate automated live-cell counting a solution of Hoechst33342 (0.01 mg/ml)+Propidium Iodide (0.004 mg/ml) in 0.9% saline was mixed with an appropriate cell number dilution of the samples in 96 well plates (50 ul staining solution+50 ul cell suspension of 10000 cells/ml) and images are taken of the wells and cell numbers are calculated by a computer program.
# After 14 days plates were removed from the incubator, rinsed with PBS and stained with cold 2 g/L Malachite green oxalate salt solution (Sigma-Aldrich, cat #M6880) for 30 minutes at room temperature. Plates were rinsed with distilled water and dried. Pictures were obtained of the plates and colonies consisting of 50 or more cells were counted using a Stuart Scientific colony counter.
# All plates with colonies were analyzed except when colony numbers were so high that the edges of individual colonies could not be determined accurately. Plating efficiency (PE) of each tumour sample was calculated first: PE is a ratio of the number of colonies to the number of cells seeded (sum of all the colonies countable in all the plates of the same sample divided by the sum of cells plated in the same plates). The PE of control tumours was averaged for the calculation of surviving fraction (SF): SF is based on the number of colonies formed in drug and/or radiation treated cells relative to that of untreated control (PE of treated tumor sample divided by PE of control). All treated data points were compared separately to the average of the controls. Finally, a Clonogenic Survival Enhancement Ratio (CS-ER) was calculated: the SF of irradiated control groups were divided by the SF of treatment groups to determine treatment group-specific CS-ER values, and these were assigned scores based on defined response ranges: values >6=A, 4-6=B, <4=C.
# [2] = tested on: FaDu tumour xenograft; assay: In vivo tumour growth delay (TGD-ER), FaDu tumour xenografts + radiation; conditions: PO
# Experimental: FaDu tumour xenograft-bearing animals were monitored for tumour growth and once average tumour size reached approximately 100-250 mm3, animals were assigned to treatment cohorts using stratified randomization. Animals were weighted and treated with doses of test compounds at 10, 30 or 100 mg/kg PO from 1, 3 or 10 mg/mL formulations at time 0.
# For BID dosing regimens, at 8 h following the first injection, animals were again administered with test compound at the same dose as their previous administration. Animals were weighed and had tumours measured using calipers three times weekly until the endpoint of maximum tumour volume, 1000 mm3, was reached and animals were euthanized. Tumour volumes were calculated according to the equation L×W^2/2 with the length (mm) being the longer axis of the tumour; in the case that no tumour was palpable, tumour volumes were recorded as 0 mm^3.
# Data were calculated as tumour growth normalized to day 0 measurements, with time to tumour doubling determined. Average time to tumour doubling for each group was used to determine a Tumour Growth Delay Enhancement Ratio (TGD-ER): the time to doubling for treatment groups were divided by the time to doubling for irradiation-alone groups to determine group-specific TGD-ER values, and these were assigned scores based on defined response ranges: values >2.5=A, 1-2.5=B, <1=C.
smiles,measurement,setting,value
"O=C(N[C@H]1CC[C@@H](Oc2nc(N3CCOCC3)cc3ncccc23)CC1)c1ccncc1 [Compound 113, N-((1s,4s)-4-((7-morpholino-1,6-naphthyridin-5-yl)oxy)cyclohexyl)isonicotinamide]",CS-ER Range Score,"[1]; 30 mpk + 8 Gy, 2 h",C (<4=C)
same,CS-ER Range Score,"[1]; 30 mpk + 8 Gy, 4 h",B (4-6=B)
"O=C(N[C@H]1CC[C@@H](Oc2nc(N3CCOCC3)cc3ncccc23)CC1)c1ccnnc1 [Compound 121, N-((1s,4s)-4-((7-morpholino-1,6-naphthyridin-5-yl)oxy)cyclohexyl)pyridazine-4-carboxamide]",CS-ER Range Score,"[1]; 30 mpk + 8 Gy, 4 h",C (<4=C)
"O=C(N[C@H]1CC[C@@H](Oc2nc(N3CCOCC3)cc3ncccc23)CC1)c1ncccn1 [Compound 123, N-((1s,4s)-4-((7-Morpholino-1,6-naphthyridin-5-yl)oxy)cyclohexyl)pyrimidine-2-carboxamide]",CS-ER Range Score,"[1]; 100 mpk + 10 Gy, 0.5 h",C (<4=C)
same,CS-ER Range Score,"[1]; 100 mpk + 10 Gy, 4 h",A (values >6=A)
same,CS-ER Range Score,"[1]; 100 mpk + 10 Gy, 8 h",A (values >6=A)
same,CS-ER Range Score,"[1]; 100 mpk + 10 Gy, 24 h",A (values >6=A)
same,TGD-ER Range Score,[2]; 10 mpk + 10 Gy,B (1-2.5=B)
same,TGD-ER Range Score,[2]; 30 mpk + 10 Gy,B (1-2.5=B)
same,TGD-ER Range Score,[2]; 100 mpk + 10 Gy,A (values >2.5=A)
same,TGD-ER Range Score,[2]; (30 mpk + 2 Gy) Q5D,A (values >2.5=A)
same,TGD-ER Range Score,[2]; (30 mpk) Q5D,C (<1=C)
"O=C(N[C@H]1CC[C@@H](Oc2nc(N3CCOCC3)cc3ncccc23)CC1)c1cc[nH]c1 [Compound 140, N-((1s,4s)-4-((7-morpholino-1,6-naphthyridin-5-yl)oxy)cyclohexyl)-1H-pyrrole-3-carboxamide]",CS-ER Range Score,"[1]; 30 mpk + 8 Gy, 4 h",B (4-6=B)
same,TGD-ER Range Score,[2]; 30 mpk BID + 10 Gy,C (<1=C)
"O=C(N[C@H]1CC[C@@H](Oc2nc(N3CCOCC3)cc3ncccc23)CC1)c1ncco1 [Compound 142, N-((1s,4s)-4-((7-morpholino-1,6-naphthyridin-5-yl)oxy)cyclohexyl)oxazole-2-carboxamide]",CS-ER Range Score,"[1]; 30 mpk + 8 Gy, 2 h",B (4-6=B)
same,CS-ER Range Score,"[1]; 30 mpk + 8 Gy, 4 h",B (4-6=B)
"O=C(N[C@H]1CC[C@@H](Oc2nc(N3CCOCC3)cc3ncccc23)CC1)c1c[nH]cn1 [Compound 144, N-((1s,4s)-4-((7-morpholino-1,6-naphthyridin-5-yl)oxy)cyclohexyl)-1H-imidazole-4-carboxamide]",CS-ER Range Score,"[1]; 30 mpk + 8 Gy, 2 h",C (<4=C)
same,CS-ER Range Score,"[1]; 30 mpk + 8 Gy, 4 h",B (4-6=B)
"CS(=O)(=O)Nc1cnc2cc(N3CCOCC3)nc(O[C@H]3CC[C@@H](Nc4ncccn4)CC3)c2c1 [Compound 185, N-(7-morpholino-5-(((1s,4s)-4-(pyrimidin-2-ylamino)cyclohexyl)oxy)-1,6-naphthyridin-3-yl)methanesulfonamide]",CS-ER Range Score,"[1]; 30 mpk + 8 Gy, 4 h",B (4-6=B)
same,TGD-ER Range Score,[2]; 10 mpk BID + 5 Gy,B (1-2.5=B)
same,TGD-ER Range Score,[2]; 30 mpk BID + 5 Gy,B (1-2.5=B)
same,TGD-ER Range Score,[2]; 100 mpk BID + 5 Gy,B (1-2.5=B)
"COc1cnc(N[C@H]2CC[C@@H](Oc3nc(N4CCOCC4)cc4ncc(NS(C)(=O)=O)cc34)CC2)nc1 [Compound 203, N-(5-(((1s,4s)-4-((5-methoxypyrimidin-2-yl)amino)cyclohexyl)oxy)-7-morpholino-1,6-naphthyridin-3-yl)methanesulfonamide]",CS-ER Range Score,"[1]; 30 mpk + 8 Gy, 2 h",B (4-6=B)
same,CS-ER Range Score,"[1]; 30 mpk + 8 Gy, 4 h",B (4-6=B)
